Reference: patent US4755514A, “Phenylpyrazine derivatives and thrombolytic agent” (Suntory Limited, priority 1985, dated 1988)

Columns and labels:
[1] = system: pulmonary embolism induced by collagen; assay: prevention of pulmonary embolic death in mice (collagen injection); type: in vivo, Male ddY mice; settings: 300 mg/kg peroral, 3 h before collagen i.v.; control: 6/6 died
Experimental: The following tests were conducted to evaluate the effect of the claimed compounds in the prevention of pulmonary embolic death in mice.
Each of the compounds being tested was suspended in 0.5% carboxymethyl cellulose and administered perorally at a dosage of 300 mg/kg (0.1 ml/10 g body weight).
Male ddY mice weighing 18-20 g were subjected to the test after being starved overnight.
Three hours after oral administration of a selected test compound to the mice, 30 mg/kg of adenosine-5'-diphosphate sodium salt (Sigma Chemical Co., Grade IX) or collagen was injected through their tail veins. The number of mice which died of pulmonary embolism within 3 minutes after the intravenous injections was counted.
The adenosine-5'-diphosphate sodium salt (ADP 2Na) was in the form of a solution in physiological saline at a concentration of 300 mg/10 ml. The collagen was administered in the form of a solution which was prepared by the following procedure: 25 mg of collagen was uniformly sonicated in a solution containing 25 mmol of tris-HCl and 130 mmol of sodium chloride (pH: 7.3), and the resultant dispersion was incubated at 37° C. for 45 minutes to form a polymer (after incubation, the collagen solution was kept in ice-water until it was used).
As a control, 0.5% carboxymethyl cellulose (10 ml/kg) was administered through tail veins.

[2] = system: pulmonary embolism induced by adenosine-5'-diphosphate sodium salt (ADP 2Na); assay: prevention of pulmonary embolic death in mice (ADP 2Na injection); type: in vivo, Male ddY mice; settings: 300 mg/kg peroral; for Number of animals dying within 3 minutes after injection/Number of animals in test, ADP 2Na: 3 h before 30 mg/kg ADP 2Na i.v., control: 6/6 died; for thrombolytic effects compared with Ticlopidine: from Table 1 (ADP 2Na and collagen), mice
[3] = system: mice; set-up: species or system ddY male mice; settings: mouse, in vivo
Experimental: The following acute toxicity test was conducted on mice:
Animal: Five-week old ddY male mice (wt: 21-27 g) in groups of 6.
Method: The mice were starved overnight and the compound prepared in Example 6 was administered perorally in an amount of 0.1 ml/10 g body weight after it was suspended in 0.5% carboxymethyl cellulose sodium salt (CMC-Na). As a control, 0.5% CMC-Na solution was administered.

## Clc1ccc(-c2cnccn2)c(Cl)c1 [Example 5, 2-(2,4-dichlorophenyl)pyrazine]
[1]
  Number of animals dying within 3 minutes after injection/Number of animals in test, Collagen: 4/10
[2]
  Number of animals dying within 3 minutes after injection/Number of animals in test, ADP 2Na: 6/10

## COc1ccc(-c2cnccn2)cc1 [Example 3, 2-(4-methoxyphenyl)pyrazine]
[1]
  Number of animals dying within 3 minutes after injection/Number of animals in test, Collagen: 6/8
[2]
  Number of animals dying within 3 minutes after injection/Number of animals in test, ADP 2Na: 4/7

## Oc1ccc(-c2cnccn2)cc1 [Example 8, 2-(4-hydroxyphenyl)pyrazine]
[1]
  Number of animals dying within 3 minutes after injection/Number of animals in test, Collagen: 7/8
[2]
  Number of animals dying within 3 minutes after injection/Number of animals in test, ADP 2Na: 4/7

## Clc1ccc(-c2cnccn2)cc1Cl [Example 6, 2-(3,4-dichlorophenyl)pyrazine]
[3]
  animals that died at the dosage levels used: none of the animals treated with the compound of Example 6 died
  changes in the general condition of the mice: No apparent changes were observed
[1]
  Number of animals dying within 3 minutes after injection/Number of animals in test, Collagen: 4/10
[2]
  Number of animals dying within 3 minutes after injection/Number of animals in test, ADP 2Na: 3/10
  thrombolytic effects compared with Ticlopidine: equal to or greater than the levels achieved by a known thrombolytic agent, Ticlopidine

## Clc1ccccc1-c1cnccn1 [Example 7, 2-(2-chlorophenyl)pyrazine]
[1]
  Number of animals dying within 3 minutes after injection/Number of animals in test, Collagen: 6/9
[2]
  Number of animals dying within 3 minutes after injection/Number of animals in test, ADP 2Na: 5/10

## Cc1ccc(-c2cnccn2)cc1 [Example 2, 2-(4-methylphenyl)pyrazine]
[1]
  Number of animals dying within 3 minutes after injection/Number of animals in test, Collagen: 7/8
[2]
  Number of animals dying within 3 minutes after injection/Number of animals in test, ADP 2Na: 3/7

## Clc1cccc(-c2cnccn2)c1 [Example 4, 2-(3-chlorophenyl)pyrazine]
[1]
  Number of animals dying within 3 minutes after injection/Number of animals in test, Collagen: 6/10
[2]
  Number of animals dying within 3 minutes after injection/Number of animals in test, ADP 2Na: 5/10

## Clc1ccc(-c2cnccn2)cc1 [Example 1, 2-(4-chlorophenyl)pyrazine]
[1]
  Number of animals dying within 3 minutes after injection/Number of animals in test, Collagen: 2/8
[2]
  Number of animals dying within 3 minutes after injection/Number of animals in test, ADP 2Na: 4/9
  thrombolytic effects compared with Ticlopidine: equal to or greater than the levels achieved by a known thrombolytic agent, Ticlopidine
